The results in this text go back to patent publication US8957078B2, “Compounds useful as inhibitors of ATR kinase” (Vertex Pharmaceuticals Incorporated, priority 2013, dated 2015).

Experiment [1] has as its target T1, ATR kinase (full-length ATR) (Homo sapiens, UniProt Q13535).
T1 construct: in the presence of 5 nM full-length ATR
The experiment can be described thus: ATR Inhibition Assay (radioactive-phosphate incorporation). Particulars: Ki(app); 5 nM full-length ATR, 10 μM ATP, 800 μM target peptide, 25° C. Format: biochemical. As for the experimental part: Compounds were screened for their ability to inhibit ATR kinase using a radioactive-phosphate incorporation assay. Assays were carried out in a mixture of 50 mM Tris/HCl (pH 7.5), 10 mM MgCl2 and 1 mM DTT. Final substrate concentrations were 10 μM [γ-33P]ATP (3 mCi 33P ATP/mmol ATP, Perkin Elmer) and 800 μM target peptide (ASELPASQPQPFSAKKK (SEQ. ID NO: 1)).
Assays were carried out at 25° C. in the presence of 5 nM full-length ATR. An assay stock buffer solution was prepared containing all of the reagents listed above, with the exception of ATP and the test compound of interest. 13.5 μL of the stock solution was placed in a 96 well plate followed by addition of 2 μL of DMSO stock containing serial dilutions of the test compound (typically starting from a final concentration of 15 μM with 3-fold serial dilutions) in duplicate (final DMSO concentration 7%). The plate was pre-incubated for 10 minutes at 25° C. and the reaction initiated by addition of 15 μL [γ-33P]ATP (final concentration 10 μM).
The reaction was stopped after […] by the addition of 30 μL 0.1M phosphoric acid containing 2 mM ATP. A multiscreen phosphocellulose filter 96-well plate (Millipore, Cat no. MAPHN0B50) was pretreated with 100 μL 0.2M phosphoric acid prior to the addition of 45 μL of the stopped assay mixture. The plate was washed with 5×200 μL 0.2M phosphoric acid. After drying, 100 μL Optiphase ‘SuperMix’ liquid scintillation cocktail (Perkin Elmer) was added to the well prior to scintillation counting (1450 Microbeta Liquid Scintillation Counter, Wallac).
After removing mean background values for all of the data points, Ki(app) data were calculated from non-linear regression analysis of the initial rate data using the Prism software package (GraphPad Prism version 3.0cx for Macintosh, GraphPad Software, San Diego Calif., USA).

For experiment [2], the system named is HCT116 colorectal cancer cells. The experiment can be described thus: Cisplatin Sensitization Assay (96 h cell viability MTS). The experiment is classed as cell-based. Particulars: concentration of compound required to reduce the IC50 of Cisplatin alone by at least 3-fold; HCT116, 96 h MTS. The procedure: Compounds can be screened for their ability to sensitize HCT116 colorectal cancer cells to Cisplatin using a 96 h cell viability (MTS) assay. […] Compounds and Cisplatin are then both added simultaneously to the cell media in 2-fold serial dilutions from a top final concentration of 10 μM as a full matrix of concentrations in a final cell volume of 200 μl, and the cells are then incubated at 37° C. in 5% CO2. After 96 h, 40 μl of MTS reagent (Promega G358a) is added to each well and the cells are incubated for 1 h at 37° C. in 5% CO2. Finally, absorbance is measured at 490 nm using a SpectraMax Plus 384 reader (Molecular Devices) and the concentration of compound required to reduce the IC50 of Cisplatin alone by at least 3-fold (to 1 decimal place) can be reported.

Molecules are shown by their SMILES.

T1 sequence (Q13535 whole entry): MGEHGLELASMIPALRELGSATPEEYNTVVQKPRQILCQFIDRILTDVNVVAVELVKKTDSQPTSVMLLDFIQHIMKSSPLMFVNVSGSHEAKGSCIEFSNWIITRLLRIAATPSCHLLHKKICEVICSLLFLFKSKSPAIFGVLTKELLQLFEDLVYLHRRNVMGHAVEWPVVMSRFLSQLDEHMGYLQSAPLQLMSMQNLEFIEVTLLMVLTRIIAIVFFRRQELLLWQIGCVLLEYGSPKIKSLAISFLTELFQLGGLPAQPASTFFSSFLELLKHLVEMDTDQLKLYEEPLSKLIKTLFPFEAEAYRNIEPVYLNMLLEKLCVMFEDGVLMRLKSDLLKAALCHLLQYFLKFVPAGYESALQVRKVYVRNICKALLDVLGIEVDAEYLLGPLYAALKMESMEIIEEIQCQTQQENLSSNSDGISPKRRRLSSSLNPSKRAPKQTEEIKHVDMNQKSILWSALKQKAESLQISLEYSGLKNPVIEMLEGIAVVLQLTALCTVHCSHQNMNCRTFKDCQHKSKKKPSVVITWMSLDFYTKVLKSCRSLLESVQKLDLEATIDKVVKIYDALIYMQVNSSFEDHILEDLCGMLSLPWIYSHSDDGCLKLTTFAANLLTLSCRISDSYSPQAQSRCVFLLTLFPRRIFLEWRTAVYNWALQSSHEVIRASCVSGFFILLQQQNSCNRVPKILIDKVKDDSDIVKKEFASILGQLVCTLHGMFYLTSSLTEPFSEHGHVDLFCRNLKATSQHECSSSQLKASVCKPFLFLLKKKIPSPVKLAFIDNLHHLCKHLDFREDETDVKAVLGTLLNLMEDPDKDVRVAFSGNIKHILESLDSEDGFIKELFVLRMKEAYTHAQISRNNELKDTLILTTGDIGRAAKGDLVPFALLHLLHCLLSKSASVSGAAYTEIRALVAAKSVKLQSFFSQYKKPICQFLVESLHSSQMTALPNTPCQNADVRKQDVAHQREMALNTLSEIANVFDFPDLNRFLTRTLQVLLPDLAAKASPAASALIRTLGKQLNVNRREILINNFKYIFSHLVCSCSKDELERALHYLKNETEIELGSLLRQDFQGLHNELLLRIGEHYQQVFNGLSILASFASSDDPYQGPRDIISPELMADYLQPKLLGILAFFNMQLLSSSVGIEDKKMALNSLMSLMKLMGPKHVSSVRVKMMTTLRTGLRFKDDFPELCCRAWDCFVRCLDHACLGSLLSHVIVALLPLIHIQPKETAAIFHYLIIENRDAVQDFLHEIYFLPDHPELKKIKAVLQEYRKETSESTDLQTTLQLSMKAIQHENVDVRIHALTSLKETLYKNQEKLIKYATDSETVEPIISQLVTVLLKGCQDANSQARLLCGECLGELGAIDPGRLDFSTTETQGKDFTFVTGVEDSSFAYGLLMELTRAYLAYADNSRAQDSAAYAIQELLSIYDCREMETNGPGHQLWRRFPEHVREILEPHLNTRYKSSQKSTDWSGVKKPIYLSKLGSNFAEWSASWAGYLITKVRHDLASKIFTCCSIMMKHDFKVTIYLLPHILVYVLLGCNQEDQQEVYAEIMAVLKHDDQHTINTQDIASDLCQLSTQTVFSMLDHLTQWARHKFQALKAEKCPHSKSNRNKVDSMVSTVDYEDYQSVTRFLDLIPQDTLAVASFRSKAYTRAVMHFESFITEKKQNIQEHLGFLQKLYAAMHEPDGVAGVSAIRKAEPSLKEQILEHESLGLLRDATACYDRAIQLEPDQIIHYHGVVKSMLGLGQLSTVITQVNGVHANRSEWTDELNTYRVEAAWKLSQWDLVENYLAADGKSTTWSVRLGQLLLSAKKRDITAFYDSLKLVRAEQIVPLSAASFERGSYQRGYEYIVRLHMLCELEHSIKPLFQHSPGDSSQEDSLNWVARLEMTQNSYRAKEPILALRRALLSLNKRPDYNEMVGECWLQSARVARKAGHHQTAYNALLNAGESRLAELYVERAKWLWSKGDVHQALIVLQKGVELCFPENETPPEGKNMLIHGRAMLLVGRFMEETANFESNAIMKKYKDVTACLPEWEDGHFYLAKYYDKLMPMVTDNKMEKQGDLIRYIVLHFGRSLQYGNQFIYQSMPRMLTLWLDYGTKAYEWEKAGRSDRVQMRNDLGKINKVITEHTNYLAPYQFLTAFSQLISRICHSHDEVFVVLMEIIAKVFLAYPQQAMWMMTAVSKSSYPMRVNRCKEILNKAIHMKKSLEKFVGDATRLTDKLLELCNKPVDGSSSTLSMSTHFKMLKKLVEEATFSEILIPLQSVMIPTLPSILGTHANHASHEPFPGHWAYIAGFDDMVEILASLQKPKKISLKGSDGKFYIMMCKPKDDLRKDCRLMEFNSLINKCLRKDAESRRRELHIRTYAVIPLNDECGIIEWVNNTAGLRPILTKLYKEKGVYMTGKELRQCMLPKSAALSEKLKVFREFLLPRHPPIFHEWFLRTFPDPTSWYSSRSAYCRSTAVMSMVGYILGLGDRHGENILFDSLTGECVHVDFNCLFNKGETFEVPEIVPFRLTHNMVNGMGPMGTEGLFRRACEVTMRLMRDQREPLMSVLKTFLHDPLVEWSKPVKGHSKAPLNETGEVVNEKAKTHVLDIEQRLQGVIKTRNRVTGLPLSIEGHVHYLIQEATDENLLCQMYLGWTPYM

With `CN1CCN(c2cnccc2NC(=O)c2c(N)nn3cc(F)cnc23)CC1` [I-C-2, 2-amino-6-fluoro-N-(3-(4-methylpiperazin-1-yl)pyridin-4-yl)pyrazolo[1,5-a]pyrimidine-3-carboxamide], in experiment [1], the Ki fell in the range of 10 to 1000 nM. The “Cisplatin Sensitization Assay” value in experiment [2] is “++ (Compounds with a Cisplatin sensitization value >0.02 μM but <0.2 μM are marked with “++.”)”.
In the same order, the values of `CN1CCN(C(=O)C2CCN(c3cnccc3NC(=O)c3c(N)nn4cc(F)cnc34)CC2)CC1` [I-C-3, 2-amino-6-fluoro-N-(3-(4-(4-methylpiperazine-1-carbonyl)piperidin-1-yl)pyridin-4-yl)pyrazolo[1,5-a]pyrimidine-3-carboxamide] are 10 to 1000 nM and “++ (Compounds with a Cisplatin sensitization value >0.02 μM but <0.2 μM are marked with “++.”)”.
In the case of `Cc1ncccc1-c1cnccc1NC(=O)c1c(N)nn2cc(F)cnc12` [I-C-5, 2-amino-6-fluoro-N-(2′-methyl-[3,3′-bipyridin]-4-yl)pyrazolo[1,5-a]pyrimidine-3-carboxamide], the Ki in experiment [1] fell in the range of 10 to 1000 nM. In experiment [2], the “Cisplatin Sensitization Assay” value was “++ (Compounds with a Cisplatin sensitization value >0.02 μM but <0.2 μM are marked with “++.”)”.
Consider `Cc1cnccc1-c1cnccc1NC(=O)c1c(N)nn2cc(F)cnc12` [I-C-6, 2-amino-6-fluoro-N-(3′-methyl-[3,4′-bipyridin]-4-yl)pyrazolo[1,5-a]pyrimidine-3-carboxamide], for which the Ki in experiment [1] is 10 to 1000 nM. Moreover, in experiment [2], the “Cisplatin Sensitization Assay” value is given as “++ (Compounds with a Cisplatin sensitization value >0.02 μM but <0.2 μM are marked with “++.”)”.
For `Nc1nn2cc(F)cnc2c1C(=O)Nc1ccncc1N1CCC(C(=O)N2CCN3CCC2CC3)CC1` [I-C-7, N-(3-(4-(1,4-diazabicyclo[3.2.2]nonane-4-carbonyl)piperidin-1-yl)pyridin-4-yl)-2-amino-6-fluoropyrazolo[1,5-a]pyrimidine-3-carboxamide], in that order: 10 to 1000 nM and “+++ (Compounds with a Cisplatin sensitization value of <0.02 μM are marked with “+++.”)”.
For `Nc1nn2cc(F)cnc2c1C(=O)Nc1ccncc1N1CCC(C(=O)N2CCC(N3CCCC3)CC2)CC1` [I-C-8, 2-amino-6-fluoro-N-(3-(4-(4-(pyrrolidin-1-yl)piperidine-1-carbonyl)piperidin-1-yl)pyridin-4-yl)pyrazolo[1,5-a]pyrimidine-3-carboxamide], in experiment [1], the Ki was in the range of 10 to 1000 nM. Besides, the “Cisplatin Sensitization Assay” value in experiment [2] was “+++ (Compounds with a Cisplatin sensitization value of <0.02 μM are marked with “+++.”)”.
For `Nc1nn2cc(F)cnc2c1C(=O)Nc1ccncc1N1CCC(C(=O)N2CCN(C3COC3)CC2)CC1` [I-C-9, 2-amino-6-fluoro-N-(3-(4-(4-(oxetan-3-yl)piperazine-1-carbonyl)piperidin-1-yl)pyridin-4-yl)pyrazolo[1,5-a]pyrimidine-3-carboxamide], in that order: 10 to 1000 nM and “++ (Compounds with a Cisplatin sensitization value >0.02 μM but <0.2 μM are marked with “++.”)”.
Consider `CS(=O)(=O)C1CCN(c2cnccc2NC(=O)c2c(N)nn3cc(F)cnc23)CC1` [I-C-10, 2-amino-6-fluoro-N-(3-(4-(methylsulfonyl)piperidin-1-yl)pyridin-4-yl)pyrazolo[1,5-a]pyrimidine-3-carboxamide], for which the Ki in experiment [1] was under 10 nM. Also, the “Cisplatin Sensitization Assay” value in experiment [2] is reported as “+++ (Compounds with a Cisplatin sensitization value of <0.02 μM are marked with “+++.”)”.
For `Nc1nn2cc(F)cnc2c1C(=O)Nc1ccncc1N1CCCC1` [I-C-11, 2-amino-6-fluoro-N-(3-(pyrrolidin-1-yl)pyridin-4-yl)pyrazolo[1,5-a]pyrimidine-3-carboxamide], in that order: 10 to 1000 nM and “++ (Compounds with a Cisplatin sensitization value >0.02 μM but <0.2 μM are marked with “++.”)”.
In the same order, the values of `N#CCc1cnc2c(C(=O)Nc3cncn3Cc3ccccc3)c(N)nn2c1` [I-D-1, 2-amino-N-(1-benzyl-1H-imidazol-5-yl)-6-(cyanomethyl)pyrazolo[1,5-a]pyrimidine-3-carboxamide] are under 10 nM and “+++ (Compounds with a Cisplatin sensitization value of <0.02 μM are marked with “+++.”)”.
As for `Nc1nn2cc(F)cnc2c1C(=O)Nc1cncn1-c1ccccc1` [I-D-2, 2-amino-6-fluoro-N-(1-phenyl-1H-imidazol-5-yl)pyrazolo[1,5-a]pyrimidine-3-carboxamide], the Ki in experiment [1] fell in the range of 10 to 1000 nM. The “Cisplatin Sensitization Assay” value in experiment [2] was “+++ (Compounds with a Cisplatin sensitization value of <0.02 μM are marked with “+++.”)”.
In the same order, the values of `Nc1nn2cc(F)cnc2c1C(=O)Nc1cncn1C1CC1` [I-D-3, 2-amino-N-(1-cyclopropyl-1H-imidazol-5-yl)-6-fluoropyrazolo[1,5-a]pyrimidine-3-carboxamide] are 10 to 1000 nM and “+++ (Compounds with a Cisplatin sensitization value of <0.02 μM are marked with “+++.”)”.
In the same order, the values of `Nc1nn2cc(F)cnc2c1C(=O)Nc1cncn1C1CCOCC1` [I-D-4, 2-amino-6-fluoro-N-(1-(tetrahydro-2H-pyran-4-yl)-1H-imidazol-5-yl)pyrazolo[1,5-a]pyrimidine-3-carboxamide] are 10 to 1000 nM and “++ (Compounds with a Cisplatin sensitization value >0.02 μM but <0.2 μM are marked with “++.”)”.
For `Nc1nn2cc(F)cnc2c1C(=O)Nc1cncn1-c1cccnc1` [I-D-5, 2-amino-6-fluoro-N-(1-(pyridin-3-yl)-1H-imidazol-5-yl)pyrazolo[1,5-a]pyrimidine-3-carboxamide], in that order: 10 to 1000 nM and “++ (Compounds with a Cisplatin sensitization value >0.02 μM but <0.2 μM are marked with “++.”)”.
For the compound `Cc1ncc(NC(=O)c2c(N)nn3cc(F)cnc23)n1-c1ccccc1` [I-D-6, 2-amino-6-fluoro-N-(2-methyl-1-phenyl-1H-imidazol-5-yl)pyrazolo[1,5-a]pyrimidine-3-carboxamide], the Ki in experiment [1] was in the range of 10 to 1000 nM. For the same compound, in experiment [2], the “Cisplatin Sensitization Assay” value is recorded as “+++ (Compounds with a Cisplatin sensitization value of <0.02 μM are marked with “+++.”)”.
In the same order, the values of `Cc1ncccc1-c1c(C)nsc1NC(=O)c1c(N)nn2cc(F)cnc12` [I-E-1, 2-amino-6-fluoro-N-(3-methyl-4-(2-methylpyridin-3-yl)isothiazol-5-yl)pyrazolo[1,5-a]pyrimidine-3-carboxamide] are under 10 nM and “+++ (Compounds with a Cisplatin sensitization value of <0.02 μM are marked with “+++.”)”.
`Cc1nsc(NC(=O)c2c(N)nn3cc(F)cnc23)c1C1CC1` [I-E-2, 2-amino-N-(4-cyclopropyl-3-methylisothiazol-5-yl)-6-fluoropyrazolo[1,5-a]pyrimidine-3-carboxamide]: the Ki in experiment [1] was 10 to 1000 nM. Also, in experiment [2], the “Cisplatin Sensitization Assay” value is listed as “+++ (Compounds with a Cisplatin sensitization value of <0.02 μM are marked with “+++.”)”.
In the same order, the values of `Cc1nsc(NC(=O)c2c(N)nn3cc(F)cnc23)c1-c1cccnc1` [I-E-3, 2-amino-6-fluoro-N-(3-methyl-4-(pyridin-3-yl)isothiazol-5-yl)pyrazolo[1,5-a]pyrimidine-3-carboxamide] are 10 to 1000 nM and “+++ (Compounds with a Cisplatin sensitization value of <0.02 μM are marked with “+++.”)”.
With `Cc1nsc(NC(=O)c2c(N)nn3cc(F)cnc23)c1C1=CCOCC1` [I-E-4, 2-amino-N-(4-(3,6-dihydro-2H-pyran-4-yl)-3-methylisothiazol-5-yl)-6-fluoropyrazolo[1,5-a]pyrimidine-3-carboxamide], in experiment [1], the Ki is under 10 nM. The “Cisplatin Sensitization Assay” value in experiment [2] is “+++ (Compounds with a Cisplatin sensitization value of <0.02 μM are marked with “+++.”)”.
Take `Cc1nsc(NC(=O)c2c(N)nn3cc(F)cnc23)c1C1=CCN(C)CC1` [I-E-5, 2-amino-6-fluoro-N-(3-methyl-4-(1-methyl-1,2,3,6-tetrahydropyridin-4-yl)isothiazol-5-yl)pyrazolo[1,5-a]pyrimidine-3-carboxamide]: the Ki in experiment [1] was in the range of 10 to 1000 nM. Also, the “Cisplatin Sensitization Assay” value in experiment [2] is on record as “+++ (Compounds with a Cisplatin sensitization value of <0.02 μM are marked with “+++.”)”.
